Laboratory results taken from ChEMBL document CHEMBL4371060, “Identification of fluorinated (R)-(-)-aporphine derivatives as potent and selective ligands at serotonin 5-HT2C receptor” (Bioorg Med Chem Lett, 2019).

Legend:
[1] = target: 5-hydroxytryptamine receptor 2A (Homo sapiens, UniProt P28223); test: Displacement of [3H]ketanserin from 5HT2A receptor (unknown origin) expressed in HEK293T cell membranes
[2] = target: T1, 5-hydroxytryptamine receptor 2C (Homo sapiens, UniProt P28335); test: Displacement of [3H]mesulergine from 5HT2C receptor (unknown origin) expressed in HEK293T cell membranes
T1 sequence (P28335 whole entry): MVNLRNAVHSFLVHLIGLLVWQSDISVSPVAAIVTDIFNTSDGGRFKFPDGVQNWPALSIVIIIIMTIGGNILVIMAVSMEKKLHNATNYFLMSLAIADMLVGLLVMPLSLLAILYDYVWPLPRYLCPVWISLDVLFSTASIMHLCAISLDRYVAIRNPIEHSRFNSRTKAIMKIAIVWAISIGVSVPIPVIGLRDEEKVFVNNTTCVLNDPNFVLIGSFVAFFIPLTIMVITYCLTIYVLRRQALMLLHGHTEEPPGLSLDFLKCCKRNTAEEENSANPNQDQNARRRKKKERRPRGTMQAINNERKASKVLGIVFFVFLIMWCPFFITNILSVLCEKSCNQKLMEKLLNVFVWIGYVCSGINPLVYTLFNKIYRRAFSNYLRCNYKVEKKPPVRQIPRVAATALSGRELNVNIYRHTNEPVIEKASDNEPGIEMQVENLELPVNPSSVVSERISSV

[3] = target: 5-hydroxytryptamine receptor 2B (Homo sapiens, UniProt P41595); test: Displacement of [3H]LSD from 5HT2B receptor (unknown origin) expressed in HEK293 cell membranes
[4] = Selectivity ratio of Ki for displacement of [3H]DOI from recombinant human 5HT2B receptor expressed in HEK293T cell membranes to Ki for displacement of [3H]DOI from recombinant human 5HT2C receptor expressed in HEK293T cell membranes
Homo sapiens = organism: Homo sapiens; test: Selectivity ratio of Ki for displacement of [3H]LSD from 5HT2B receptor (unknown origin) expressed in HEK293 cell membranes to Ki for displacement of [3H]mesulergine from 5HT2C receptor (unknown origin) expressed in HEK293T cell membranes
[5] = target: Serotonin 2 receptors; 5-HT2a & 5-HT2c (Homo sapiens) (UniProt P28223+P28335); test: Selectivity ratio of Ki for displacement of [3H]ketanserin from 5HT2A receptor (unknown origin) expressed in HEK293T cell membranes to Ki for displacement of [3H]mesulergine from 5HT2C receptor (unknown origin) expressed in HEK293T cell membranes
Chain of Serotonin 2 receptors; 5-HT2a & 5-HT2c (Homo sapiens) (P28223 whole entry, looked up, one chain of several): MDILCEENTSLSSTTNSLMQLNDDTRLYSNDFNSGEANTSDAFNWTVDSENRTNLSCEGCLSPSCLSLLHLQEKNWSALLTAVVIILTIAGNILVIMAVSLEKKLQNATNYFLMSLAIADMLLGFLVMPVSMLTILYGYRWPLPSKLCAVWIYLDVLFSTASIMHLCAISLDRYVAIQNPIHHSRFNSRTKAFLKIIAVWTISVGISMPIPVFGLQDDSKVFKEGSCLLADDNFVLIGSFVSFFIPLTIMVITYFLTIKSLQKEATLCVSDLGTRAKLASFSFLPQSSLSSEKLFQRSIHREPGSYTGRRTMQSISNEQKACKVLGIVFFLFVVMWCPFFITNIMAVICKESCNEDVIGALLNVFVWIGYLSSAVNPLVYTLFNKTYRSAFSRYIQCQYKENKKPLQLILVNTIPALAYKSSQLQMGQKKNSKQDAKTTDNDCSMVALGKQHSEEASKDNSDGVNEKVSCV

Chain of 5-hydroxytryptamine receptor 2A (P28223 whole entry): as the sequence (P28223 whole entry, looked up, one chain of several) above
Chain of 5-hydroxytryptamine receptor 2B (P41595 whole entry): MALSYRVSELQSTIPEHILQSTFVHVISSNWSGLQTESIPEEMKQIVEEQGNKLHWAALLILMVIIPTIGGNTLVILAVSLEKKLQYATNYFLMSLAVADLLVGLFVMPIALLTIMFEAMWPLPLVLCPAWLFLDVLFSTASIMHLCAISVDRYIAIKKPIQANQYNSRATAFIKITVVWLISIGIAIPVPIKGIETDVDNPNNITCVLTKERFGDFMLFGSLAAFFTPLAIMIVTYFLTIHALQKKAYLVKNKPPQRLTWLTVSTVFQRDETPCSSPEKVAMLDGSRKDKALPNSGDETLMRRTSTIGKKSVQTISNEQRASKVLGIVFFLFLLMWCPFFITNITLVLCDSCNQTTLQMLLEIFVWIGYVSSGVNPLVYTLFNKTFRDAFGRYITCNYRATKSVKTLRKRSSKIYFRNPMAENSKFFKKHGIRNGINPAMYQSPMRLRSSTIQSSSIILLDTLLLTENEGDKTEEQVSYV

| SMILES | Ki [1] [µM] | Ki [2] [µM] | Ki [3] [µM] | Ki [4] [µM] | Ratio Ki (Homo sapiens) | Ratio Ki [5] |
| --- | --- | --- | --- | --- | --- | --- |
| CCCN1CCc2cc(OC)cc3c2[C@H]1Cc1cccc(OCCCF)c1-3 | > 10 | > 10 | > 10 |  |  |  |
| CCCN1CCc2cc(OC)cc3c2[C@H]1Cc1cccc(OCCF)c1-3 | > 10 | > 10 | 3.04 |  |  |  |
| CCCN1CCc2cc(OC)cc3c2[C@H]1Cc1cccc(OCc2ccc(F)cc2)c1-3 | > 10 | > 10 | > 10 |  |  |  |
| C[C@H]1CNCCc2ccc(Cl)cc21 [LORCASERIN] |  |  |  | 0.012 |  |  |
| COc1cc2c3c(c1)-c1c(cccc1OCc1ccc(F)cc1)C[C@H]3N(C)CC2 | 2.31 | > 10 | 2.68 |  |  |  |
| COc1cc2c3c(c1)-c1c(cccc1OCCCF)C[C@H]3N(C)CC2 | 0.434 | 0.338 | 0.422 |  | 1.2 | 1.3 |
| COc1cc2c3c(c1)-c1c(cccc1OC(=O)c1ccc(F)cc1)C[C@H]3N(C)CC2 | 0.45 | 0.032 | 0.102 |  | 3.2 | 14 |
| CCCN1CCc2cc(OC)cc3c2[C@H]1Cc1cccc(OC(=O)c2ccc(F)cc2)c1-3 | 0.414 | 0.024 | 0.106 |  | 4.4 | 17 |
| COc1cc2c3c(c1)-c1c(cccc1OCCF)C[C@H]3N(C)CC2 | 1.14 | 0.343 | 0.552 |  | 1.6 | 3.3 |
